Measured values as given in patent US8586588B2, “Aryl pyridazinone derivatives and their use as H3 receptor ligands” (Cephalon, Inc., priority 2006, dated 2013).
pKi: −log10 of the molar value.

Key:
[1] = target: T1, rat histamine H3 receptor (Rattus norvegicus, UniProt Q9QYN8); experiment: Rat H3 radioligand binding ([3H]-N-alpha-methylhistamine, CHO-A3 cell membranes, SPA); conditions: Table A, binding constant as letter class; read-out: Rat H3 Ki
T1 construct: encoding the entire 445-amino-acid rat histamine H3 receptor; expressed in transfected cells
Experimental: (§1) This was engineered into the pIRES-neo3 mammalian expression vector, which was stably transfected into the CHO-A3 cell line (Euroscreen, Belgium), followed by clonal selection by limiting dilution. Cells were harvested and cell pellets were frozen (−80° C.). Cell pellets were resuspended in 5 mM Tris-HCl, pH 7.5 with […] and a cocktail of protease inhibitors (Complete Protease Inhibition Tablets, Roche Diagnostics). Cells were disrupted using a polytron cell homogenizer and the suspension was centrifuged at 1000×g for 10 minutes at 4° C. The pellet was discarded and the supernatant centrifuged at 40,000×g for 30 min at 4° C. This membrane pellet was washed in membrane buffer containing 50 mM Tris-HCl, pH 7.5 with 0.6 mM EDTA, 5 mM MgCl2 and protease inhibitors, recentrifuged as above and the final pellet resuspended in membrane buffer plus 250 mM sucrose and frozen at −80° C.
(§2) Membranes were resuspended in 50 mM Tris HCl (pH 7.4), 5 mM MgCl2, 0.1% BSA. The membrane suspensions (10 μg protein per well) were incubated in a 96 well microtiter plate with [^3H]-N-alpha-methylhistamine (approximately 1 nM final concentration), test compounds at various concentrations (0.01 nM-30 μM) and scintillation proximity beads (Perkin Elmer, FlashBlueGPCR Scintillating Beads) in a final volume of 80 μl for 4 hours at room temperature, protected from light. Non-specific binding was determined in the presence of 10 μM clobenpropit. Radioligand bound to receptor, and therefore in proximity to the scintillation beads, was measured using a MicroBeta scintillation counter.

[2] = target: T2, human H3 receptor (Homo sapiens, UniProt Q9Y5N1); experiment: Human H3 radioligand binding ([3H]-N-alpha-methylhistamine, CHO cell membranes, SPA); conditions: Table A, binding constant as letter class
T2 construct: expressed in transfected cells
Experimental: as §1, with “Cell” for “This was engineered into the pIRES-neo3 mammalian expression vector, which was stably transfected into the CHO-A3 cell line (Euroscreen, Belgium), followed by clonal selection by limiting dilution. Cells were harvested and cell pellets were frozen (−80° C.). Cell”
as §2

T2 sequence (Q9Y5N1 whole entry): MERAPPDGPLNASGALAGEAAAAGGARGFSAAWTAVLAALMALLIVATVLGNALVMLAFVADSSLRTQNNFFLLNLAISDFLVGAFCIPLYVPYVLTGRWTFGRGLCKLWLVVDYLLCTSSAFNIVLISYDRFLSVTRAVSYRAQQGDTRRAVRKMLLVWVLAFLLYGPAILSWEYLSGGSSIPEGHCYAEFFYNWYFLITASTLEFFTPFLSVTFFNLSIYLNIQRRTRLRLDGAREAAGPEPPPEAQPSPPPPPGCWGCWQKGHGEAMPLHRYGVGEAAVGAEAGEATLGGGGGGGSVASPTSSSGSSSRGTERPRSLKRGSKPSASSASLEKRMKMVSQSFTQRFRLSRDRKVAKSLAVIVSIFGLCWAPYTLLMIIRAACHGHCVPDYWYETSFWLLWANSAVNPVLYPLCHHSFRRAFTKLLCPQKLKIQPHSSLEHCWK
T1 sequence (Q9QYN8 whole entry): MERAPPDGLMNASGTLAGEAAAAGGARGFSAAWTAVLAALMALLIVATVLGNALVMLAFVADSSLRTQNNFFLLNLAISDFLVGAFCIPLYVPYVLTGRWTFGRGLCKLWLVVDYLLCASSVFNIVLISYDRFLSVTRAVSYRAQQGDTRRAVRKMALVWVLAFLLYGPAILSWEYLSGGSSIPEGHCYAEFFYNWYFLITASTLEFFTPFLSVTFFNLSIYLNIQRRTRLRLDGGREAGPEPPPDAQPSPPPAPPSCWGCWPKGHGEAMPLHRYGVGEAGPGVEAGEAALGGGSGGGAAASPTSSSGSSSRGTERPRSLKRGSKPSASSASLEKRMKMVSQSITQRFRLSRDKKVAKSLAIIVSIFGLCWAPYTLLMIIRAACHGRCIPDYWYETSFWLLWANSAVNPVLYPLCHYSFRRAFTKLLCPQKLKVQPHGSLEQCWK

SMILES	pKi [1]	pKi [2]
CCCn1nc(-c2ccc(OCCCN3CCC(N(C)C)CC3)cc2)c2sccc2c1=O [Example 35, 7-{4-[3-(4-Dimethylamino-piperidin-1-yl)-propoxy]-phenyl}-5-propyl-5H-thieno[2,3-d]pyridazin-4-one]	6.30 to 7.00	6.30 to 7.00
CCCn1nc(-c2ccc(OCCCN3CCC[C@H]3CN3CCCC3)cc2)c2sccc2c1=O [Example 36, 5-Propyl-7-{4-[3-((S)-2-pyrrolidin-1-ylmethyl-pyrrolidin-1-yl)-propoxy]-phenyl}-5H-thieno[2,3-d]pyridazin-4-one]	< 6.00	6.30 to 7.00
O=c1c2ccsc2c(-c2ccc(OCCCN3CCCCC3)cc2)nn1Cc1ccc(Cl)cc1 [Example 37, 5-(4-Chloro-benzyl)-7-[4-(3-piperidin-1-yl-propoxy)-phenyl]-5H-thieno[2,3-d]pyridazin-4-one]	6.30 to 7.00	7.00 to 10.00
C[C@@H]1CCCN1CCCOc1ccc(-c2nn(Cc3ccc(Cl)cc3)c(=O)c3ccsc23)cc1 [Example 38, 5-(4-Chloro-benzyl)-7-{4-[3-((R)-2-methyl-pyrrolidin-1-yl)-propoxy]-phenyl}-5H-thieno[2,3-d]pyridazin-4-one]	7.00 to 10.00	7.00 to 10.00
Cc1cc(-c2ccc(OCCCN3CCCCC3)cc2)nn(C)c1=O [Example 39, 2,4-Dimethyl-6-[4-(3-piperidin-1-yl-propoxy)-phenyl]-2H-pyridazin-3-one]	7.00 to 10.00	7.00 to 10.00
Cc1cc(-c2ccc(OCCCN3CCC[C@H]3C)cc2)nn(C)c1=O [Example 40, 2,4-Dimethyl-6-{4-[3-((R)-2-methyl-pyrrolidin-1-yl)-propoxy]-phenyl}-2H-pyridazin-3-one]	7.00 to 10.00	7.00 to 10.00
Cc1cc(-c2ccc(OCCCN3CCC[C@H]3C)cc2)nn(C(C)C)c1=O [Example 41, 2-Isopropyl-4-methyl-6-{4-[3-((R)-2-methyl-pyrrolidin-1-yl)-propoxy]-phenyl}-2H-pyridazin-3-one]	7.00 to 10.00	7.00 to 10.00
Cc1cc(-c2ccc(OCCCN3CCCCC3)cc2)nn(C(C)C)c1=O [Example 42, 2-Isopropyl-4-methyl-6-[4-(3-piperidin-1-yl-propoxy)-phenyl]-2H-pyridazin-3-one]	6.30 to 7.00	6.30 to 7.00
Cc1cc(-c2ccc(OCCCN3CCC[C@H]3C)cc2)nn(Cc2ccccc2)c1=O [Example 43, 2-Benzyl-4-methyl-6-{4-[3-((R)-2-methyl-pyrrolidin-1-yl)-propoxy]-phenyl}-2H-pyridazin-3-one]	7.00 to 10.00	7.00 to 10.00
Cc1cc(-c2ccc(OCCCN3CCCCC3)cc2)nn(Cc2ccccc2)c1=O [Example 44, 2-Benzyl-4-methyl-6-[4-(3-piperidin-1-yl-propoxy)-phenyl]-2H-pyridazin-3-one]	6.30 to 7.00	7.00 to 10.00
C[C@@H]1CCCN1CCCOc1ccc(-c2cc(Cc3ccccc3)c(=O)n(C)n2)cc1 [Example 45, 4-Benzyl-2-methyl-6-{4-[3-((R)-2-methyl-pyrrolidin-1-yl)-propoxy]-phenyl}-2H-pyridazin-3-one]	7.00 to 10.00	7.00 to 10.00
Cn1nc(-c2ccc(OCCCN3CCCCC3)cc2)cc(Cc2ccccc2)c1=O [Example 46, 4-Benzyl-2-methyl-6-[4-(3-piperidin-1-yl-propoxy)-phenyl]-2H-pyridazin-3-one]	6.30 to 7.00	7.00 to 10.00
C[C@@H]1CCCN1CCCOc1ccc(-c2nn(C)c(=O)cc2-c2ccccc2)cc1 [Example 47, 2-Methyl-6-{4-[3-((R)-2-methyl-pyrrolidin-1-yl)-propoxy]-phenyl}-5-phenyl-2H-pyridazin-3-one]	7.00 to 10.00	7.00 to 10.00
Cn1nc(-c2ccc(OCCCN3CCCCC3)cc2)c(-c2ccccc2)cc1=O [Example 48, 2-Methyl-5-phenyl-6-[4-(3-piperidin-1-yl-propoxy)-phenyl]-2H-pyridazin-3-one]	7.00 to 10.00	7.00 to 10.00
C[C@@H]1CCCN1CCCOc1ccc(-c2nn(C)c(=O)c3ccccc23)cc1 [Example 49, 2-Methyl-4-{4-[3-((R)-2-methyl-pyrrolidin-1-yl)-propoxy]-phenyl}-2H-phthalazin-1-one]	7.00 to 10.00	7.00 to 10.00
Cn1nc(-c2ccc(OCCCN3CCCCC3)cc2)c2ccccc2c1=O [Example 50, 2-Methyl-4-[4-(3-piperidin-1-yl-propoxy)-phenyl]-2H-phthalazin-1-one]	7.00 to 10.00	7.00 to 10.00
Cn1nc(-c2ccc(OCCN3CCCCC3)cc2)c2ccccc2c1=O [Example 51, 2-Methyl-4-[4-(2-piperidin-1-yl-ethoxy)-phenyl]-2H-phthalazin-1-one]	< 6.00	7.00 to 10.00
Cn1nc(-c2ccc(OCCCN3CCCC3)cc2)c2ccccc2c1=O [Example 52, 2-Methyl-4-[4-(3-pyrrolidin-1-yl-propoxy)-phenyl]-2H-phthalazin-1-one]	7.00 to 10.00	7.00 to 10.00
Cn1nc(-c2ccc(OCCCN3CCCCCC3)cc2)c2ccccc2c1=O [Example 53, 4-[4-(3-Azepan-1-yl-propoxy)-phenyl]-2-methyl-2H-phthalazin-1-one]	7.00 to 10.00	7.00 to 10.00
C[C@@H]1CCCN1CCCOc1ccc(-c2nn(Cc3ccc(Cl)cc3)c(=O)c3ccccc23)cc1 [Example 54, 2-(4-Chloro-benzyl)-4-{4-[3-((R)-2-methyl-pyrrolidin-1-yl)-propoxy]-phenyl}-2H-phthalazin-1-one]	7.00 to 10.00	7.00 to 10.00
O=c1c2ccccc2c(-c2ccc(OCCCN3CCCCC3)cc2)nn1Cc1ccc(Cl)cc1 [Example 55, 2-(4-Chloro-benzyl)-4-[4-(3-piperidin-1-yl-propoxy)-phenyl]-2H-phthalazin-1-one]	7.00 to 10.00	7.00 to 10.00
C[C@@H]1CCCN1CCCOc1ccc(-c2nn(C)c(=O)c3c2CCC3)cc1 [Example 56, 2-Methyl-4-{4-[3-((R)-2-methyl-pyrrolidin-1-yl)-propoxy]-phenyl}-2,5,6,7-tetrahydro-cyclopenta[d]pyridazin-1-one]	7.00 to 10.00	7.00 to 10.00
Cn1nc(-c2ccc(OCCCN3CCCCC3)cc2)c2c(c1=O)CCC2 [Example 57, 2-Methyl-4-[4-(3-piperidin-1-yl-propoxy)-phenyl]-2,5,6,7-tetrahydro-cyclopenta[d]pyridazin-1-one]	7.00 to 10.00	7.00 to 10.00
C[C@@H]1CCCN1CCCOc1ccc(C2=NN(C)C(=O)C3CCCC23)cc1 (stereo partly drawn) [Example 58, 2-Methyl-4-{4-[3-((R)-2-methyl-pyrrolidin-1-yl)-propoxy]-phenyl}-2,4a,5,6,7,7a-hexahydro-cyclopenta[d]pyridazin-1-one]	7.00 to 10.00	7.00 to 10.00
CN1N=C(c2ccc(OCCCN3CCCCC3)cc2)C2CCCC2C1=O (stereo not drawn) [Example 59, 2-Methyl-4-[4-(3-piperidin-1-yl-propoxy)-phenyl]-2,4a,5,6,7,7a-hexahydro-cyclopenta[d]pyridazin-1-one]	7.00 to 10.00	7.00 to 10.00
C[C@@H]1CCCN1CCCOc1ccc(-c2nn(C)c(=O)c3c2CCCC3)cc1 [Example 60, 2-Methyl-4-{4-[3-((R)-2-methyl-pyrrolidin-1-yl)-propoxy]-phenyl}-5,6,7,8-tetrahydro-2H-phthalazin-1-one]	7.00 to 10.00	7.00 to 10.00
Cn1nc(-c2ccc(OCCCN3CCCCC3)cc2)c2c(c1=O)CCCC2 [Example 61]	7.00 to 10.00	7.00 to 10.00
